Measurements published in patent US9492434B2, “Combination compositions and methods of treatment” (University of Florida Research Foundation, Inc., priority 2011, dated 2016).

Assays:
Type in all cases: cell-based, human
[1] = system: E-Cadherin-containing complexes; test: GST pulldown (glutathione-agarose) of E-Cadherin complexes from 231/E-Cad-GST cells, immunoblot; conditions: for stabilization of E-Cadherin/γ-Catenin complexes relative to vehicle: 10 nM Largazole, 1 μM SAHA, or 100 nM TSA (FIG. 6C)
Protocol: Cells were subjected to hypotonic lysis and membrane fractions were isolated by centrifugation for one hour at 100,000×g. The pellet was solubilized by sonication in buffer containing 2% Triton X100, 20 mM HEPES (pH 7.4), 1 mM EDTA, 1 mM EGTA, 0.1% β-mercaptoethanol, 5% glycerol, 10 nM microcystin, 200 μM Na3VO4, and 40 mM Na2H2P2O7. The membrane extract was centrifuged for one hour at 100,000×g, and the supernatant was used for E-Cadherin purifications. Complexes containing E-Cad-GST were isolated using glutathione-agarose (G4510; Sigma-Aldrich, St. Louis, Mo.), washed, and either eluted with 5 mM glutathione or eluted by boiling in SDS-PAGE sample buffer. In sequential purifications involving γ-Catenin-His6 and E-Cad-GST proteins expressed in the same cells, TALON (635503; Clontech Laboratories, Inc., Mountain View, Calif.) resin purifications were performed as described previously (Chytil et al 2004), and the 400 mM imidazole eluents were diluted ten-fold and purified using glutathione-agarose, followed by elution with 5 mM glutathione. […] Immunoprecipitations were performed as described previously (Law et al 2002) using 2 mg of total protein extract per sample and 4 μg of antibody per sample. Immunoprecipitates prepared using antibodies to E-Cadherin (610182; BD Biosciences) or GST (sc-459; Santa Cruz Biotechnology Inc.) were isolated with 35 μl per sample Protein G-Sepharose (10-1242; Invitrogen), washed, and eluted by boiling in SDS-PAGE sample buffer.
FIG. 6. […] A. Crude lysates (left panel) or GST pulldowns (right panel) from 231/E-Cad-GST cells treated for 72 hrs with 100 nM Dexamethasone, 10 nM Largazole, or Dex.+Larg. were analyzed by immunoblot. B. 231/E-Cad-GST cells were infected with an adenovirus encoding His6-tagged γ-Catenin and 231/neo cells were infected with an adenovirus encoding GFP and incubated 24 hours. The cells were then treated as indicated for 72 hrs with or without Dex.+Larg. γ-Catenin- and E-Cadherin containing complexes were isolated by sequential TALON and glutathione-agarose chromatography and analyzed by immunoblot. C. 231/E-Cad-GST cells were treated with 10 nM Largazole, 1 μM SAHA, or 100 nM TSA for 72 hrs and extracts were subjected to glutathione-agarose chromatography and the affinity purified material was analyzed by immunoblot.

[2] = system: 231/E-GFP cell line (MDA-MB-231 cells stably expressing E-Cad-GFP); test: Fluorescence microscopy of E-Cad-GFP localization in 231/E-Cad-GFP cells; conditions: 72 hrs, 100 nM Dexamethasone, 10 nM Largazole, or both (FIG. 3A)
Protocol: Fluorescence and immunofluorescence microscopy were performed essentially as described previously (Corsino et al 2008) employing antibodies to E-Cadherin (610182; BD Bioscience) and γ-Catenin (138500; Invitrogen, Carlsbad, Calif.).
The 231/E-GFP cell line was treated with a series of small molecule signaling agonists and antagonists to identify compounds that modulate E-Cadherin localization within the cell. […] Changes in E-Cadherin localization partially overlapped with changes in γ-Catenin localization. In vitro invasion assays were performed to determine the respective effects of E-Cadherin expression and Dex.+Larg. treatment on the invasiveness of MDA-MB-231 cells.
FIG. 3. Dexamethasone and Largazole cooperate to suppress invasion and to restore E-Cadherin localization to the cell periphery. A. Fluorescence (E-Cad-GFP) or immunofluorescence microscopy (γ-Catenin (γ-Cat.)) of 231/E-Cad-GFP cells treated for 72 hrs with Vehicle (Control), 100 nM Dexamethasone, 10 nM Largazole, or 100 nM Dexamethasone+10 nM Largazole (Dex.+Larg.). […] BT549 cells were treated and analyzed by immunofluorescence microscopy as in FIG. 3A. D. BT549 cells were treated as described in FIG. 3A and analyzed for invasion as outlined in FIG. 3B.

BT549 cells = conditions: 72 hrs; 100 nM Dexamethasone, 10 nM Largazole, or both (FIG. 3D)
CDCP1 = CDCP1 immunoblot analysis, MDA-MB-231 cells; conditions: 72 hr, Dexamethasone 100 nM, Largazole 10 nM (FIG. 5A, 5C)

With CC(/C=C/C(=O)NO)=C\[C@@H](C)C(=O)c1ccc(N(C)C)cc1 [TSA, Trichostatin A, reference compound] the “stabilization of E-Cadherin/γ-Catenin complexes relative to vehicle” value ([1]; 231/E-Cad-GST cells, 72 hrs) was “stabilized E-Cadherin/γ-Catenin complexes to similar extents relative to vehicle treatment”.

For CCCCCCCC(=O)SCC/C=C/[C@@H]1CC(=O)NCc2nc(cs2)C2=N[C@@](C)(CS2)C(=O)N[C@@H](C(C)C)C(=O)O1 [Largazole, largazole], the “stabilization of E-Cadherin/γ-Catenin complexes relative to vehicle” value ([1]; 231/E-Cad-GST cells, 72 hrs) was “stabilized E-Cadherin/γ-Catenin complexes to similar extents relative to vehicle treatment”, the “γ-Catenin binding to E-Cadherin” value ([1]; 231/E-Cad-GST cells, 72 hrs, 100 nM Dexamethasone or 10 nM Largazole (FIG. 6A)) was “preferentially increased γ-Catenin binding to E-Cadherin relative to β-Catenin binding” and the “levels of γ-Catenin” value ([1]; 231/E-Cad-GST crude lysates, 72 hrs, 10 nM Largazole (FIG. 6A)) was “without changing the levels of γ-Catenin”. For the same compound, the “E-Cadherin association with β-Catenin” value ([1]; Largazole treatment) was “little effect on E-Cadherin association with β-Catenin”, the “E-Cadherin localization to the cell-cell periphery” value [2] was “modestly increased E-Cadherin localization to the cell-cell periphery” and the “invasion of BT549 cells in vitro” value (BT549 cells) was “suppressed the invasion of BT549 cells in vitro”. For the same compound, the “CDCP1 cleavage (cleaved form cCDCP1, p80)” value (CDCP1) was “did not influence CDCP1 cleavage”.

O=C(CCCCCCC(=O)Nc1ccccc1)NO [SAHA, suberoylanilide hydroxamic acid, reference compound] was tested, and the “stabilization of E-Cadherin/γ-Catenin complexes relative to vehicle” value ([1]; 231/E-Cad-GST cells, 72 hrs) was “stabilized E-Cadherin/γ-Catenin complexes to similar extents relative to vehicle treatment”.
